Assay results from publication PMC12621043, “Un-LOK-ing a New Approach for Conformational Selective Targeting of STK10 (LOK)” (ACS Medicinal Chemistry Letters, 2025).

How the values were obtained:
Assay in all cases: DSF Tm panel
Format in all cases: binding
Details in all cases: 10 μM compound
BMPR2A = target: T1, BMPR2A (Homo sapiens, UniProt Q13873)
T1 construct: purchased in-house DSF kinase panel (SGC-style construct names; the trailing letter is the construct ID)
T1 sequence (Q13873 27-1038): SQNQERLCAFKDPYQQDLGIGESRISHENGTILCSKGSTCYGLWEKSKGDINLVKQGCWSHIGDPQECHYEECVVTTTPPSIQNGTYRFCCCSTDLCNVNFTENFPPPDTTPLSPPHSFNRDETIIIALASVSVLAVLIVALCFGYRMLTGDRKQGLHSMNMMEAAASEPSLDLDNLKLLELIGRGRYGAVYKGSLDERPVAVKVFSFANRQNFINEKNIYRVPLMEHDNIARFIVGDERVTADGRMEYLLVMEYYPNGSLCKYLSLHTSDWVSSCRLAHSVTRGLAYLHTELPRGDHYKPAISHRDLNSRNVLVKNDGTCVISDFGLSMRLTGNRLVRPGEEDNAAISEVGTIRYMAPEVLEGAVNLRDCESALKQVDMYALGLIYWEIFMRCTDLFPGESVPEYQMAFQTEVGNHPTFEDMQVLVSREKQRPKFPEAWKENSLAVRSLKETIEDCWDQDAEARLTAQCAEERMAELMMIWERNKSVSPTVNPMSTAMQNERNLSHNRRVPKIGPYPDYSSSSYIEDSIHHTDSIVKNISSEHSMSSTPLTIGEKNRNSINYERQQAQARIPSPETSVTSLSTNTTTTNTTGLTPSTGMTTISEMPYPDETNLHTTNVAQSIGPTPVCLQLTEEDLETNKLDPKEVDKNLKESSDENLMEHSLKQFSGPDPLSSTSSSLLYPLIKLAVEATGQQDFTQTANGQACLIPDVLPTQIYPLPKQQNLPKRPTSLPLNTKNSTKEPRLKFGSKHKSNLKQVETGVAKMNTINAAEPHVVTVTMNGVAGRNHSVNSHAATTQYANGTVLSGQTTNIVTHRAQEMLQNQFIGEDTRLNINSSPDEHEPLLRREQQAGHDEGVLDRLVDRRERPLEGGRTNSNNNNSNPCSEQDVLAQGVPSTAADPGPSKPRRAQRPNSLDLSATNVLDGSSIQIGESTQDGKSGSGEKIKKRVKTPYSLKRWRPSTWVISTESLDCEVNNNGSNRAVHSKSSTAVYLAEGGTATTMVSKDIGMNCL
Method: (§1) The synthesized urea-based derivatives were evaluated in a panel of kinases by differential scanning fluorescence (DSF) to investigate their selectivity profile. A positive ΔT m in the DSF assay indicates stabilization of the protein upon ligand binding in comparison to its apo state, with higher thermal shifts generally correlating with stronger binding. For this purpose, we used our internal kinase selectivity panel (∼90 kinases) along with staurosporine as a positive control. […] This was also reflected in the overall low selectivity score (S) throughout the series, which is determined by the ratio between the number of kinases that are stabilized above 5 °C and the total number of kinases tested (Figure ). Motivated by these findings, we further validated the entire series by orthogonal binding and activity assays to determine the in vitro and cellular potency and selectivity of the developed series in comparison to the selected reference compounds. […]
(§2) was performed as previously described.[1,2] Briefly, recombinant protein kinase domains at a concentration of 2 μM were mixed with 10 μM compound in a buffer containing 20 mM HEPES, […]
(§3) probe (1 µl per mL). Subsequently, temperature-dependent protein unfolding profiles were […]
(§4) emission filters were set to 465 nm and 590 nm, respectively. The temperature was raised with a step rate of 3 °C per minute. […]
(§5) inflection point of the transition curve. […]
(§6) previously.[3] In brief, STK10, STK3, STK4 and SLK were obtained as plasmids cloned in […]
(§7) Plasmids were transfected into
(§8) KD concentration taken from TracerDB (tracerdb.org)[4] were pipetted into white 384-well

BRD4 (BRD4A) = target: T2, BRD4 (BRD4A) (Homo sapiens, UniProt O60885)
T2 construct: purchased in-house DSF kinase panel (SGC-style construct names; the trailing letter is the construct ID)
Method: as §1, §2, §3, §4, §5, §6, §7, §8

FGFR1B = target: T3, FGFR1B (Homo sapiens, UniProt P11362)
T3 construct: purchased in-house DSF kinase panel (SGC-style construct names; the trailing letter is the construct ID)
Method: as §1, §2, §3, §4, §5, §6, §7, §8

MAP2K4A = target: T4, MAP2K4A (Homo sapiens, UniProt P45985)
T4 construct: purchased in-house DSF kinase panel (SGC-style construct names; the trailing letter is the construct ID)
T4 sequence (P45985 102-367): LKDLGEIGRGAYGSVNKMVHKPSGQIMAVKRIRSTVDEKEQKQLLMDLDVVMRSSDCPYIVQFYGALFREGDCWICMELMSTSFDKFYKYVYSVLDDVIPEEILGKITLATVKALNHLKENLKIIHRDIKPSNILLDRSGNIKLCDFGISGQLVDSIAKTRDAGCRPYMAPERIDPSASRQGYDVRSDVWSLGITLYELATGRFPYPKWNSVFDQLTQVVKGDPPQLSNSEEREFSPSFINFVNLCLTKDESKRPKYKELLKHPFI
Method: as §1, §2, §3, §4, §5, §6, §7, §8

SRCA = target: T5, SRCA (Homo sapiens, UniProt P12931)
T5 construct: purchased in-house DSF kinase panel (SGC-style construct names; the trailing letter is the construct ID)
Method: as §1, §2, §3, §4, §5, §6, §7, §8

STK17AA = target: T6, STK17AA (Homo sapiens, UniProt Q9UEE5)
T6 construct: purchased in-house DSF kinase panel (SGC-style construct names; the trailing letter is the construct ID)
T6 sequence (Q9UEE5 61-321): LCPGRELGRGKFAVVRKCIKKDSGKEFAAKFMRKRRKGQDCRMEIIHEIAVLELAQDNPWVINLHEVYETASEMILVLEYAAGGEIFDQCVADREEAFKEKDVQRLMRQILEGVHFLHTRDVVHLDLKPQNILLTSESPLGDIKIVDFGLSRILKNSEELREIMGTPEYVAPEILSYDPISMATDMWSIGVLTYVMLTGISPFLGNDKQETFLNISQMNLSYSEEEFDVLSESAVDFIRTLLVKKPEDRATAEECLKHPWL
Method: as §1, §2, §3, §4, §5, §6, §7, §8

TTKA = target: T7, TTKA (Homo sapiens, UniProt P33981)
T7 construct: purchased in-house DSF kinase panel (SGC-style construct names; the trailing letter is the construct ID)
T7 sequence (P33981 519-808): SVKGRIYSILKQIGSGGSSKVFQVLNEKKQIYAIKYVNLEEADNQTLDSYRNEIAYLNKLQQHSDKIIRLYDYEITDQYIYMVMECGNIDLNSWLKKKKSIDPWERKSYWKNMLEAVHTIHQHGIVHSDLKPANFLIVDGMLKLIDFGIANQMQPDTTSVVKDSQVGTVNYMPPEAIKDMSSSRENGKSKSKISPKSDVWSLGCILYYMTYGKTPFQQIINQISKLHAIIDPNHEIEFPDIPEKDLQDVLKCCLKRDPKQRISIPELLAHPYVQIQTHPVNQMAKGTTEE
Method: as §1, §2, §3, §4, §5, §6, §7, §8

T3 sequence (P11362 456-767): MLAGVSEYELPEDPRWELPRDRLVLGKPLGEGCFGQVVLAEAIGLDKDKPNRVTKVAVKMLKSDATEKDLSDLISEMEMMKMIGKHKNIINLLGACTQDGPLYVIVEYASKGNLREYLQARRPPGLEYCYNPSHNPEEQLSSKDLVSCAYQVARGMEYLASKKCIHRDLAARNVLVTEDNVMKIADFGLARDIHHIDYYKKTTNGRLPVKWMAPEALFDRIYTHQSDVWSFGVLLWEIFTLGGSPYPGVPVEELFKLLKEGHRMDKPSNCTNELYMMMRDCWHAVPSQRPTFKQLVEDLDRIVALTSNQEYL
T5 sequence (P12931 254-536): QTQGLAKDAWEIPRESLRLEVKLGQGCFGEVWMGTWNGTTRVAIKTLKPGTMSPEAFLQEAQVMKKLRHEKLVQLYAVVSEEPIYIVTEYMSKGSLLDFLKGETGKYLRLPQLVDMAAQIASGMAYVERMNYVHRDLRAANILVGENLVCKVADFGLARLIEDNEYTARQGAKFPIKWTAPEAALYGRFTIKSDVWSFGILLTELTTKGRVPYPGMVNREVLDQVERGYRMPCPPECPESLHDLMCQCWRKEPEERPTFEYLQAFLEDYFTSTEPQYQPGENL

| SMILES | ΔTm at 10 µM (BMPR2A) | ΔTm at 10 µM (BRD4 (BRD4A)) | ΔTm at 10 µM (FGFR1B) | ΔTm at 10 µM (MAP2K4A) | ΔTm at 10 µM (SRCA) | ΔTm at 10 µM (STK17AA) | ΔTm at 10 µM (TTKA) |
| --- | --- | --- | --- | --- | --- | --- | --- |
| O=C(NCc1ccccc1)Nc1ccc2cc1OCCOCCNc1ccn3ncc-2c3n1 [compound 16] | 4.4 °C | 0.7 °C | 2.4 °C | 5.2 °C | 2.5 °C | 4.9 °C | 1.5 °C |
| O=C(NCc1ccccc1Cl)Nc1ccc2cc1OCCOCCNc1ccn3ncc-2c3n1 [compound 17] | 2.6 °C | 1.3 °C | 0.6 °C | 5 °C | 1.8 °C | 2.3 °C | 1.8 °C |
| O=C(NCc1cccc(Cl)c1)Nc1ccc2cc1OCCOCCNc1ccn3ncc-2c3n1 [compound 18] | 2.9 °C | 1.5 °C | 2 °C | 4.1 °C | 2.6 °C | 5.1 °C | 2.2 °C |
| O=C(NCc1ccc(Cl)cc1)Nc1ccc2cc1OCCOCCNc1ccn3ncc-2c3n1 [compound 19] | 2.3 °C | 1 °C | 1.5 °C | 5.7 °C | 2.1 °C | 2 °C | 1.4 °C |
| O=C(NCc1ccc(Cl)cc1Cl)Nc1ccc2cc1OCCOCCNc1ccn3ncc-2c3n1 [compound 20] | 1.1 °C | 1.8 °C | 0.9 °C | 3.9 °C | 1.2 °C | 1.6 °C | 1.2 °C |
| O=C(NCc1ccc(Cl)cc1F)Nc1ccc2cc1OCCOCCNc1ccn3ncc-2c3n1 [compound 21] | 1.8 °C | 2 °C | 1.1 °C | 5.4 °C | 2.6 °C | 2 °C | 1.8 °C |
| Cc1cc(Cl)ccc1CNC(=O)Nc1ccc2cc1OCCOCCNc1ccn3ncc-2c3n1 [compound 23] | 1.5 °C | 2 °C | 1.1 °C | 4.8 °C | 1.5 °C | 0.7 °C | 1.8 °C |
| Cc1cc(Br)ccc1CNC(=O)Nc1ccc2cc1OCCOCCNc1ccn3ncc-2c3n1 [compound 24] | 2.3 °C | 1.4 °C | 1.2 °C | 3.2 °C | 1.7 °C | 2.3 °C | 2.6 °C |
| Cc1ccc(F)cc1CNC(=O)Nc1ccc2cc1OCCOCCNc1ccn3ncc-2c3n1 [compound 26] | 3.4 °C | 0.5 °C | 1.9 °C | 3.2 °C | 2.2 °C | 5.2 °C | 1.9 °C |
| O=C(NCc1ccccc1C(F)(F)F)Nc1ccc2cc1OCCOCCNc1ccn3ncc-2c3n1 [compound 27] | 2.8 °C | 1.8 °C | 1.3 °C | 5.1 °C | 2.5 °C | 4 °C | 3.5 °C |
| O=C(NCc1ccc(C(F)(F)F)cc1)Nc1ccc2cc1OCCOCCNc1ccn3ncc-2c3n1 [compound 28] | 3.2 °C | 2.1 °C | 1.5 °C | 5 °C | 2.3 °C | 2.4 °C | 3.1 °C |
| COc1ccccc1CNC(=O)Nc1ccc2cc1OCCOCCNc1ccn3ncc-2c3n1 [compound 29] | 4 °C | 0.3 °C | 1.4 °C | 2.8 °C | 2 °C | 3.1 °C | 1.4 °C |
| COc1cccc(CNC(=O)Nc2ccc3cc2OCCOCCNc2ccn4ncc-3c4n2)c1 [compound 30] | 4.3 °C | 0.1 °C | 1.4 °C | 3.2 °C | 2.7 °C | 5.8 °C | 1.6 °C |
| COc1ccc(CNC(=O)Nc2ccc3cc2OCCOCCNc2ccn4ncc-3c4n2)cc1 [compound 31] | 4.6 °C | 0.6 °C | 1.5 °C | 4.3 °C | 3.2 °C | 5.1 °C | 1.8 °C |
| COc1ccc(CNC(=O)Nc2ccc3cc2OCCOCCNc2ccn4ncc-3c4n2)cc1F [compound 32] | 4.4 °C | 1.2 °C | 1.2 °C | 4 °C | 2.6 °C | 5.3 °C | 2.4 °C |
| COc1cc(CNC(=O)Nc2ccc3cc2OCCOCCNc2ccn4ncc-3c4n2)ccc1F [compound 33] | 3.7 °C | 0.7 °C | 1.9 °C | 3.6 °C | 2.6 °C | 7.6 °C | 2 °C |
| C[C@H](NC(=O)Nc1ccc2cc1OCCOCCNc1ccn3ncc-2c3n1)c1ccccc1 [compound 34] | 5.1 °C | -0.1 °C | 1.2 °C | 3.3 °C | 1.4 °C | 6 °C | 1.8 °C |
| CN1CCN(C(=O)Nc2ccc3cc2OCCOCCNc2ccn4ncc-3c4n2)CC1 [compound 35] | 3.5 °C | -0.4 °C | 0.7 °C | 1.8 °C | 0.7 °C | 1.7 °C | 0.3 °C |
